Like-named read-outs stand apart in the source and are kept apart here.
Key:
[1] = Plasma and liver concentrations and pharmacokinetics (Rat PK); format: in vivo; design: Rat PK 5 mpk AUC: unit not given here; details: for concentration at 4 h: 5 mg/kg, 5 mpk, liver concentration at 4 h; for Rat PK 5 mpk AUC: area under the plasma concentration/time curve
Procedure: Test compounds were dissolved in a suitable dosing vehicle for i.v. administration (e.g., 20%:60%:20% DMSO:PEG400:H2O) or per oral administration (e.g., 10% POLYSORBATE80:90% H2O or 100% PEG400). Animals were administered (n=2 or 3) using a crossover study design for non-rodents. Plasma samples were collected at time points between 2 minutes and 24 hours, and compound levels were determined by RP-LC/MS/MS. Liver samples were collected post-mortem in rat. Liver samples were weighed, homogenized, and diluted using techniques known to those skilled in the art, and compound levels were determined by RP-LC/MS/MS.
Pharmacokinetic parameters were calculated based on non-compartmental analysis (e.g., using WATSON, WINNOLIN). Predose concentrations that were below the limit of quantitation (BLQ) were assigned a value of 0, Standard pharmacokinetic parameters CLp, Vdss, half-life (only for IV), % F, Cmax, Tmax, AUC0-last, AUC0-infinity were calculated. AUC values were calculated using linear trapezoidal method for ascending concentrations and the log trapezoidal method for descending concentrations.

NS3/4A protease gt 3a = NS3/4A protease gt 3a (Hepatitis C virus genotype 3a, UniProt Q81258); experiment: HCV NS3 protease time-resolved fluorescence (TRF) assay, NS3/4A inhibitory activity (Ki), gt 3a; format: biochemical; details: NS3/4A enzyme
Procedure: (§1) The HCV NS3 protease inhibitory activity of the present compounds may be tested using assays known in the art. One such assay is HCV NS3 protease time-resolved fluorescence (TRF) assay as described below and in WO 2006/102087. Other examples of such assays are described in, for example, WO 2005/046712. HCV NS3 protease inhibitors, such as those described herein have a Ki less than 50 μM, such as less than 10 μM, and less than 100 nM. Ki is determined by an NS3 protease assay. The assay is performed in a final volume of 100 μl in assay buffer containing 50 mM HEPES, pH 7.5, 150 mM NaCl, 15% glycerol, 0.15% TRITON X-100, 10 mM DTT, and 0.1% PEG 8000. NS3 protease is preincubated with various concentrations of inhibitors in DMSO for 30 minutes. The reaction is initiated by adding the TRF peptide substrate (final concentration 100 nM). NS3 mediated hydrolysis of the substrate is quenched after 1 hour at room temperature with 100 μl of 500 mM MES, pH 5.5. Product fluorescence is detected using either a VICTOR V2 or FUSION fluorophotometer (PERKIN ELMER LIFE AND ANALYTICAL SCIENCES) with excitation at 340 nm and emission at 615 nm with a 400 μs delay. Testing concentrations of different enzyme forms are selected to result in a signal to background ratio (SIB) of 10-30. IC50 values are derived using a standard four-parameter fit to the data. Ki values are derived from IC50 values using the following formula, IC50=Ki(1+[S]/KM), Eqn (1), where [S] is the concentration of substrate peptide in the reaction and KM is the Michaelis constant. See Paola Gallinari et al., Modulation of Hepatitis C Virus NS3 Protease and Helicase Activities through the Interaction with NS4A, 38 BIOCHEM. 5620 (1999); Paola Gallinari et al., Multiple Enzymatic Activities Associated with Recombinant NS3 Protein of Hepatitis C Virus, 72(8) J. VIROLOGY 6758 (1998); Mariana Taliani et al., A Continuous Assay of Hepatitis C Virus Protease Based on Resonance Energy Transfer Depsipeptide Substrates, 240 ANAL. BIOCHEM. 60 (1996).
(§2) This NS3 protease assay was performed in a final volume of 100 μl assay buffer containing 50 mM HEPES, pH 7.5, 150 mM NaCl, 15% glycerol, 0.15% TRITON X-100, 10 mM DTT, and 0.1% PEG 8000. NS3/4A protease was pre-incubated with various concentrations of inhibitors in DMSO for 30 minutes. The reaction was initiated by adding the TRF peptide substrate (final concentration 100 nM). NS3 mediated hydrolysis of the substrate was quenched after 1 hour at RT with 100 μl of 500 mM MES, pH 5.5. Product fluorescence was detected using either a V1CTOR V2 or FUSION fluorophotometer (PERKIN ELMER LIFE AND ANALYTICAL SCIENCES) with excitation at 340 nm and emission at 615 nm with a 400 us delay. Testing concentrations of different enzyme forms were selected to result in a signal to background ratio (SIB) of 10-30. IC50 values were derived using a standard four-parameter fit to the data. K, values are derived from IC50 values using the following formula, IC50=Ki(1+[S]/KM), Eqn (1), where [S] is the concentration of substrate peptide in the reaction and KM is the Michaelis constant. See Paola Gallinari et al., Modulation of Hepatitis C Virus NS3 Protease and Helicase Activities through the Interaction with NS4A, 38 BIOCHEM. 5620 (1999); Paola Gallinari et al., Multiple Enzymatic Activities Associated with Recombinant NS3 Protein of Hepatitis C Virus, 72(8) J. VIROLOGY 6758 (1998); Mariana Milani et al., A Continuous Assay of Hepatitis C Virus Protease Based on Resonance Energy Transfer Depsipeptide Substrates, 240 ANAL. BIOCHEM. 60 (1996); Shi-Shan Mao et al., A time-resolved, internally quenched fluorescence assay to characterize inhibition of hepatitis C virus nonstructural protein 3-4A protease at low enzyme concentrations, 373 ANALYTICAL BIOCHEMISTRY 1 (2008). Measuring Compound Inhibitory Potency (Replicon EC50 (nM))

HCV gt 1b replicon = experiment: HCV replicon assay, compound inhibitory potency (Replicon EC50); format: cell-based; details: Hepatitis C virus, GT1B
Procedure: Measurement of inhibition by compounds was performed using the HCV replicon system. Several different replicons encoding different HCV genotypes or mutations were used. In addition, potency measurements were made using different formats of the replicon assay, including different ways of measurements and different plating formats. See Jan M. Vrolijk et al., A replicon-based bioassay for the measurement of interferons in patients with chronic hepatitis C, 110 J. VIROLOGICAL METHODS 201 (2003); Steven S. Carroll et al., Inhibition of Hepatitis C Virus RNA Replication by 2′-Modified Nucleoside Analogs, 278(14) J. BIOLOGICAL CHEMISTRY 11979 (2003). However, the underlying principles are common to all of these determinations, and are outlined below.
Stable neomycin phosphotransferase encoding replicon-harboring cell lines were used, so all cell lines were maintained under G418 selection prior to the assay. In some cases the cell lines encoded a luciferase:NEO FUSION and could be assayed either directly by determination of RNA copy number, or indirectly through measurement of the luciferase activity.
To initiate an assay, replicon cells were plated in the presence of a dilution series of test compound in the absence of G418. Typically, the assays were performed in a 96-well plate format for manual operation, or a 384-well plate in an automated assay. Replicon cells and compound were incubated for 24 to 48 hours, depending on the assay. At the end of the assay, cells are washed free of media and compound and then lysed. For direct quantitation, RNA levels were measured by 32P-probe hybridization and protection, or in a TAQMAN-based assay and normalized to cellular cyclophilin A RNA levels. In some cases, luciferase activity was measured using a conventional luciferase assay. In all cases, EC50 determinations were calculated as a percent of a DMSO control by fitting the data to a four-parameter fit function.

NS3/4A protease gt 1b = NS3/4A protease gt 1b (Hepatitis C virus genotype 1b, UniProt P26663); experiment: HCV NS3 protease time-resolved fluorescence (TRF) assay, NS3/4A inhibitory activity (Ki), gt 1b; format: biochemical; details: NS3/4A enzyme
Procedure: as §1, §2

[2] = target: NS3/4A protease gt 1b A156V (Hepatitis C virus genotype 1b, UniProt P26663, A1182V); experiment: HCV NS3 protease time-resolved fluorescence (TRF) assay, NS3/4A inhibitory activity (Ki), gt 1b A156V; format: biochemical
Procedure: as §1, §2

[3] = 10% fetal bovine serum, read-out: gt 1b Replicon EC50 10% FBS
[4] = 50% normal human serum, read-out: gt 1b Replicon EC50 50% NHS

Row | Compound | concentration at 4 h [1] [µM] | Rat PK 5 mpk AUC [1] | Ki (NS3/4A protease gt 3a) [nM] | EC50 (HCV gt 1b replicon; [3]) [nM] | EC50 (HCV gt 1b replicon; [4]) [nM] | Ki (NS3/4A protease gt 1b) [nM] | Ki [2] [nM]
1 | CC1(S(=O)(=O)NC(=O)[C@@]23C[C@H]2/C=C\CCCCC[C@@H]2NC(=O)O[C@@H]4CCC[C@H]4CCCCCc4nc5ccccc5nc4O[C@@H]4C[C@@H](C(=O)N3)N(C4)C2=O)CC1 [Example 7, (3R,20R,24R,28S,34Z,36S,38R,41S)—N-[(1-Methylcyclopropyl)sulfonyl]-26,40,42-trioxo-4,25-dioxa-1,6,13,27,39-pentaazaheptacyclo[26.13.1.1^3,41.0^5,14.0^7,12.0^20,24.0^36,38]tritetraconta-5,7,9,11,13,34-hexaene-38-carboxamide] | 41 | 1.35 | 0.72 | 2 | 10 | 0.02 | 1.2
2 | O=C1N[C@H]2CCCCC/C=C\[C@@H]3C[C@@]3(C(=O)NS(=O)(=O)C3CC3)NC(=O)[C@@H]3C[C@H](CN3C2=O)Oc2nc3ccccc3nc2CCCCC[C@@H]2C[C@H]2O1 [Example 8, (3R,20R,22R,26S,32Z,34S,36R,39S)—N-(Cyclopropylsulfonyl)-24,38,40-trioxo-4,23-dioxa-1,6,13,25,37-pentaazaheptacyclo[24.13.1.1^3,39.0^5,14.0^7,12.0^20,22.0^34,36]hentetraconta-5,7,9,11,13,32-hexaene-36-carboxamide] | 7 | 0.06 | 0.49 | 1 | 13 | 0.02 | 0.9
3 | CC1(S(=O)(=O)NC(=O)[C@@]23C[C@H]2/C=C\CCCCC[C@@H]2NC(=O)O[C@@H]4C[C@H]4CCCCCc4nc5ccccc5nc4O[C@@H]4C[C@@H](C(=O)N3)N(C4)C2=O)CC1 [Example 9, (3R,20R,22R,26S,32Z,34S,36R,39S)—N-[(1-Methylcyclopropyl)sulfonyl]-24,38,40-trioxo-4,23-dioxa-1,6,13,25,37-pentaazaheptacyclo[24.13.1.1^3,39.0^5,14.0^7,12.0^20,22.0^34,36]hentetraconta-5,7,9,11,13,32-hexaene-36-carboxamide] | 20 | 0.26 | 0.52 | 2 | 11 | 0.03 | 0.8
4 | C[C@@]12C[C@H]1CCCCCc1nc3ccccc3nc1O[C@@H]1C[C@H]3C(=O)N[C@]4(C(=O)NS(=O)(=O)C5CC5)C[C@H]4/C=C\CCCCC[C@H](NC(=O)O2)C(=O)N3C1 [Example 10, (3R,20R,22R,26S,32Z,34S,36R,39S)—N-(Cyclopropylsulfonyl)-22-methyl-24,38,40-trioxo-4,23-dioxa-1,6,13,25,37-pentaazaheptacyclo[24.13.1.1^3,39.0^5,14.0^7,12.0^20,22.0^34,36]hentetraconta-5,7,9,11,13,32-hexaene-36-carboxamide] | 15 | 0.6 | 0.35 | 1 | 5 | 0.02 | 0.6
5 | CC1(S(=O)(=O)NC(=O)[C@@]23C[C@H]2/C=C\CCCCC[C@@H]2NC(=O)O[C@]4(C)C[C@H]4CCCCCc4nc5ccccc5nc4O[C@@H]4C[C@@H](C(=O)N3)N(C4)C2=O)CC1 [Example 11, (3R,20R,22R,26S,32Z,34S,36R,39S)-22-Methyl-N-[(1-methylcyclopropyl)sulfonyl]-24,38,40-trioxo-4,23-dioxa-1,6,13,25,37-pentaazaheptacyclo[24.13.1.1^3,39.0^5,14.0^7,12.0^20,22.0^34,36]hentetraconta-5,7,9,11,13,32-hexaene-36-carboxamide] | 4 | 0.07 | 0.37 | 1 | 5 | 0.02 | 0.5
